Experimental data: US12649750B2, “Macrocyclic compounds, compositions, and methods of using thereof” (Sionna Therapeutics Inc., priority 2022, dated 2026)

Key:
NBD1 = target: T1, NBD1 (Homo sapiens, UniProt P13569); assay: Aggregation analysis using differential static light scattering (DSLS), thermal stability of NBD1 (ΔTagg); format: binding; settings: ΔTagg versus DMSO control, NBD1 0.2 mg/ml
T1 construct: Purified recombinant NBD1 was produced using previously described methods; made in house
T1 sequence (P13569 423-646 limits assumed): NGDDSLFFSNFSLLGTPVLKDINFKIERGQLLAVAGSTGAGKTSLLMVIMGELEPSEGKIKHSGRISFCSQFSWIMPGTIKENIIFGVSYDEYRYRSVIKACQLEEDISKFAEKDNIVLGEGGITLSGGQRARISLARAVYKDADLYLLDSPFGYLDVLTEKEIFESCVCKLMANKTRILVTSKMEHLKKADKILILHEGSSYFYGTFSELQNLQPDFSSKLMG
In short: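 Read-out is ΔTagg: the aggregation temperature, taken at the inflection of the light-scattering curve, less the average of DMSO control wells. Recombinant NBD1 (0.2 mg/ml, pH7.6 buffer containing 2 mM ATP) with test compound was heated at 1° C. per minute up to 70° C.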

CFTR = target: T2, CFTR (Homo sapiens, UniProt P13569, DEL508-508); assay: TECC24 AUC fold over DMSO @10 μM, CFTR-mediated transepithelial chloride transport in CF-HBE cells; format: cell-based; settings: test agent AUC divided by DMSO vehicle AUC, primary CF-HBE cells, ΔF508 homozygous donor, 48 hours incubation
T2 construct: Primary human bronchial epithelial cells from a ΔF508 homozygous CF donor; host or cells: primary human bronchial epithelial cells (CF-HBE), ΔF508 homozygous donor
T2 sequence (P13569 with tags, fused parts or gaps DEL508-508): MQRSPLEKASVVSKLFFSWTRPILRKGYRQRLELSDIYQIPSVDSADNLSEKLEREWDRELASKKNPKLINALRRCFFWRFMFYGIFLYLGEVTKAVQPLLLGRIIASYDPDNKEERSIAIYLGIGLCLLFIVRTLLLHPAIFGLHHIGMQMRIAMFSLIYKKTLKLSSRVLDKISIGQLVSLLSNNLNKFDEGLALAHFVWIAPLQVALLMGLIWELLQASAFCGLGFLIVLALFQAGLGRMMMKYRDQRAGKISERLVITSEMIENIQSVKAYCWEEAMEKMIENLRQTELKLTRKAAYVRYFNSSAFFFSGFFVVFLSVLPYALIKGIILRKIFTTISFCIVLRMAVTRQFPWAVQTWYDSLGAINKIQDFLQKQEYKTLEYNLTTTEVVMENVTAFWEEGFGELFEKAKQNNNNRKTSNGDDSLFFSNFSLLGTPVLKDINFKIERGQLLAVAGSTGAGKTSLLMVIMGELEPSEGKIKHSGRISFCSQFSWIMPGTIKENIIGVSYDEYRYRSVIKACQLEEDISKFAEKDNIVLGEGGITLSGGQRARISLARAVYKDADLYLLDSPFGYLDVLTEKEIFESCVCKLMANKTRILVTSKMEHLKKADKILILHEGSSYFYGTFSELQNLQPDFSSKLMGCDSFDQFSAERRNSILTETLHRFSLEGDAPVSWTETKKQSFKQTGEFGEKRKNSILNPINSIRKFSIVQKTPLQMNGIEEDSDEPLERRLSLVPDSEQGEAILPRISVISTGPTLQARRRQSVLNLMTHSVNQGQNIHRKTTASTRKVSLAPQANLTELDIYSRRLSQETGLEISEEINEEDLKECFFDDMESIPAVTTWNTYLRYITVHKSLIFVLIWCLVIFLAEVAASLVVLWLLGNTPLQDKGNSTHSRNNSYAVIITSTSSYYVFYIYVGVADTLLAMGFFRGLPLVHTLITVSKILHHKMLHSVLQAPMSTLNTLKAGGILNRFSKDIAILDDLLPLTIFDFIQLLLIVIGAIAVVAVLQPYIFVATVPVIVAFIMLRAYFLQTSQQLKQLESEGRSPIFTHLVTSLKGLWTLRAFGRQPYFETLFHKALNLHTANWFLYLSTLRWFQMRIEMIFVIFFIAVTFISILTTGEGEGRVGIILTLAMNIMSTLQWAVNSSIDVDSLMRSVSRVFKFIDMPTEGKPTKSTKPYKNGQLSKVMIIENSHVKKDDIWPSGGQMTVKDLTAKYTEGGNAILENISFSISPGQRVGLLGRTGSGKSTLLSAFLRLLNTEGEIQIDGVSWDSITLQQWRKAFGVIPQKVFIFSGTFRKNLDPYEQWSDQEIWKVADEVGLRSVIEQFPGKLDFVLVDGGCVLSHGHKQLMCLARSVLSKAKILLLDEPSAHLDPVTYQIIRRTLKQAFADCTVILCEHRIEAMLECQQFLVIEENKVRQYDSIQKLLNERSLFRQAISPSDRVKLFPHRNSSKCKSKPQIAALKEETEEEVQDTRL
In short: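 Value is ratio of test-agent to DMSO AUC of equivalent transepithelial Cl− current, integrated from forskolin (10 μM) stimulation to CFTR inhibitor-172 (20 μM) block, with benzamil 10 μM present. CF-HBE (ΔF508/ΔF508) cultures had 48 h compound exposure at 10 μM, 36.5° C before recording.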

| SMILES | DSLS 3D (100 μM ΔT) (NBD1) | TECC (AUC, 10 μM) (CFTR) |
| --- | --- | --- |
| CC(C)n1nc2nc1-c1cc(ccc1F)Oc1c(F)cc3[nH]ccc3c1CCS(=O)(=O)CC(C)(C)CCCC2(C)c1cccc(CCC(=O)O)c1 (stereo not shown) [Compound 75, 3-[3-(22,28-difluoro-3-isopropyl-6,10,10-trimethyl-12,12-dioxo-24-oxa-12λ6-thia-3,4,19,30-tetrazapentacyclo-[23.3.1.12,5.015,23.016,20]triaconta-1(29),2(30),4,15,17,20,22,25,27-nonaen-6-yl)phenyl]propanoic Acid] | C (a value greater than 10 °C and less than or equal to 25 °C is marked “C”) | A (a TECC value less than 12 is marked “A”) |
| Cc1cn2nc1-c1cc(ccc1F)Oc1c(F)cc3[nH]ccc3c1CCS(=O)(=O)CC(C)(C)COCCC2c1cccc(CCC(=O)O)c1 (stereo not shown) [Compound 76, 3-[3-(23,29-Difluoro-3,11,11-trimethyl-13,13-dioxo-9,25-dioxa-13λ6-thia-5,20,31-triazapentacyclo[24.3.1.12,5.016,24.017,21]hentriaconta-1(30),2(31),3,16,18,21,23,26,28-nonaen-6-yl)phenyl]propanoic Acid] | C (a value greater than 10 °C and less than or equal to 25 °C is marked “C”) | A (a TECC value less than 12 is marked “A”) |
| Cn1cc2nc1-c1cc(ccc1F)Oc1c(F)cc3[nH]ccc3c1CCS(=O)(=O)CC(C)(C)CCCC2(C)c1cccc(CCC(=O)O)c1 (stereo not shown) [Compound 77, 3-[3-(22,28-Difluoro-3,6,10,10-tetramethyl-12,12-dioxo-24-oxa-12λ6-thia-3,19,30-triazapentacyclo[23.3.1.12,5.015,23.016,20]triaconta-1(29),2(30),4,15,17,20,22,25,27-nonaen-6-yl)phenyl]propanoic Acid] | C (a value greater than 10 °C and less than or equal to 25 °C is marked “C”) | A (a TECC value less than 12 is marked “A”) |
| Cn1nc2nc1-c1cc(ccc1F)Oc1c(F)cc3[nH]ccc3c1CCS(=O)(=O)CC(C)(C)OCCC2(C)c1cccc(CCO)c1 (stereo not shown) [Compound 78, 2-[3-(22,28-Difluoro-3,6,10,10-tetramethyl-12,12-dioxo-9,24-dioxa-12lambda6-thia-3,4,19,30-tetrazapentacyclo-[23.3.1.12,5.015,23.016,20]triaconta-1(29),2(30),4,15,17,20,22,25,27-nonaen-6-yl)phenyl]-ethanol] | B (a value above 5 °C and less than or equal to 10 °C is marked “B”) | A (a TECC value less than 12 is marked “A”) |
| CCOC(=O)CCc1cccc(C2CCS(=O)(=O)CCS(=O)(=O)CCc3c(c(F)cc4[nH]ccc34)Oc3ccc(F)c(c3)-c3ccn2n3)c1 (stereo not shown) [Compound 92, Ethyl 3-[3-(22,28-difluoro-9,9,12,12-tetraoxo-24-oxa-9lambda6,12lambda6-dithia-5,19,30-triazapentacyclo[23.3.1.12,5.015,23.016,20]triaconta-1(29),2(30),3,15,17,20,22,25,27-nonaen-6-yl)phenyl]propanoate] | A (an ΔTagg value less than or equal to 5 °C is marked “A”) | A (a TECC value less than 12 is marked “A”) |
| Cn1nc2nc1-c1cc(ccc1F)Oc1c(F)cc3[nH]ccc3c1Cc1ccnn1CCS(=O)(=O)CCC2(C)c1cccc(CCC(=O)O)c1 (stereo not shown) [Compound 99, 3-[3-(25,31-Difluoro-3,6-dimethyl-9,9-dioxo-27-oxa-9λ6-thia-3,4,12,13,22,33-hexazahexacyclo[26.3.1.12,5.012,16.018,26.019,23]tritriaconta-1(32),2(33),4,13,15,18,20,23,25,28,30-undecaen-6-yl)phenyl]propanoic Acid] | A (an ΔTagg value less than or equal to 5 °C is marked “A”) | A (a TECC value less than 12 is marked “A”) |
| Cn1nc2nc1-c1cc(ccc1F)Oc1c(F)cc3[nH]ccc3c1CCS(=O)(=O)CC(C)(C)CCCC2(CO)c1cccc(CCC(=O)O)c1 (stereo not shown) [Compound 103, 3-[3-[22,28-Difluoro-6-(hydroxymethyl)-3,10,10-trimethyl-12,12-dioxo-24-oxa-12lambda6-thia-3,4,19,30-tetrazapentacyclo[23.3.1.12,5.015,23.016,20]triaconta-1(29),2(30),4,15,17,20,22,25,27-nonaen-6-yl]phenyl]propanoic Acid] | C (a value greater than 10 °C and less than or equal to 25 °C is marked “C”) | A (a TECC value less than 12 is marked “A”) |
| Cn1nc2nc1-c1cc(ccc1F)Oc1c(F)cc3[nH]ccc3c1CCS(=O)(=O)CC(C)(C)CCCC2(C#N)c1cccc(CCC(=O)O)c1 (stereo not shown) [Compound 104, 3-[3-(6-Cyano-22,28-difluoro-3,10,10-trimethyl-12,12-dioxo-24-oxa-12lambda6-thia-3,4,19,30-tetrazapentacyclo[23.3.1.12,5.015,23.016,20]triaconta-1(29),2(30),4,15,17,20,22,25,27-nonaen-6-yl)phenyl]propanoic Acid] | C (a value greater than 10 °C and less than or equal to 25 °C is marked “C”) | C (a value between 20 and 80 is marked “C”) |
| Cn1nc2nc1-c1cc(ccc1F)Oc1c(F)cc3[nH]ccc3c1CCS(=O)(=O)CC(C)(C)CCCC2(CF)c1cccc(CCC(=O)O)c1 (stereo not shown) [Compound 105, 3-[3-[22,28-Difluoro-6-(fluoromethyl)-3,10,10-trimethyl-12,12-dioxo-24-oxa-12lambda6-thia-3,4,19,30-tetrazapentacyclo-[23.3.1.12,5.015,23.016,20]triaconta-1(29),2(30),4,15,17,20,22,25,27-nonaen-6-yl]phenyl]propanoic acid] | B (a value above 5 °C and less than or equal to 10 °C is marked “B”) | A (a TECC value less than 12 is marked “A”) |
| Cn1nc2nc1-c1cc(ccc1F)Oc1c(F)cc3[nH]ccc3c1CCS(=O)(=O)CC(C)(C)C(F)(F)CCC2(C)c1cccc(CCC(=O)O)c1 (stereo not shown) [Compound 106, 3-[3-(9,9,22,28-Tetrafluoro-3,6,10,10-tetramethyl-12,12-dioxo-24-oxa-12lambda6-thia-3,4,19,30-tetrazapentacyclo[23.3.1.12,5.015,23.016,20]triaconta-1(29),2(30),4,15,17,20,22,25,27-nonaen-6-yl)phenyl]propanoic Acid] | C (a value greater than 10 °C and less than or equal to 25 °C is marked “C”) | A (a TECC value less than 12 is marked “A”) |
| Cn1nc2nc1-c1cc(ccc1F)Oc1c(F)cc3[nH]ccc3c1CCS(=O)(=O)CC(C)(C)/C(F)=C/CC2(C)c1cccc(CCC(=O)O)c1 (stereo not shown) [Compound 107, 3-[3-[(8Z)-9,22,28-Trifluoro-3,6,10,10-tetramethyl-12,12-dioxo-24-oxa-12lambda6-thia-3,4,19,30-tetrazapentacyclo-[23.3.1.12,5.015,23.016,20]triaconta-1(29),2(30),4,8,15,17,20,22,25,27-decaen-6-yl]phenyl]propanoic acid] | C (a value greater than 10 °C and less than or equal to 25 °C is marked “C”) | A (a TECC value less than 12 is marked “A”) |
